{"source": "patent US10865188B2", "about": "“Dibenzo azepine compounds and their use in the treatment of otic diseases and disorders” (Pipeline Therapeutics, Inc., priority 2015, dated 2020)", "key": {"Atoh1": {"test_system": "Atoh1", "assay": "Human neural stem cell assay, Atoh1 gene expression (real-time PCR)", "format": "cell-based", "details": "human neural stem cells, 7 point CRC, read-out: hNSC Atoh1 EC50", "protocol": "(§1) Neural stem cells (NSC) were derived from embryonic stem cells using a published protocol (Yuan et al., Mar. 2, 2011, PLoS ONE, 6(3):e17540). Cells were sorted and characterized at passage 3 and were expanded. Cells were then frozen at passage 5. Cells were maintained in NSC media (DMEM/F12, N2 (1×), B27(1×) (Invitrogen), and Pen/Strep (1×) (Life Technologies) with 20 ng/ml bFGF (BD Bioscience/Corning)). On day 1, cells were plated in 96 well plates that have been previously coated with poly-ornithin and laminin, 60,000 cells/well in 100 μl of media. On day 2, spent media was removed, and 180 μl of fresh media was added to the cells. Later that same day (day 2), cells were treated with 20 μl of NSC media containing test compounds (7 point CRC). On day 3, spent media was removed and 140 μl of RLT/bME was added to the cells. RNA was extracted using the QiaCube (Qiagen®, Germantown, Md., USA) using the total RNA extraction+DNAse protocol. RNA was then reverse-transcribed to cDNA using iScript (Bio-Rad, Hercules, Calif., USA). cDNA was then used for real-time PCR analysis using iTaq Sybergreen (BioRad). Expression of Atoh1, Hes5, Hes1, Myosin7a genes was evaluated using CFX96 or CFX384 (Bio-Rad). HPRT1 was used as a reference gene. Analysis was done using Microsoft® Excel® and CBIS (ChemInnovation Software, Inc., San Diego, Calif., USA). […]"}, "HES5": {"test_system": "HES5", "assay": "Human neural stem cell assay, Hes5 gene expression (real-time PCR)", "format": "cell-based", "details": "human neural stem cells, 7 point CRC, read-out: hNSC HES5 IC50", "protocol": "as §1"}, "mice": {"test_system": "mice", "assay": "Auditory brainstem response (ABR) hearing threshold", "format": "in vivo", "details": "formulations of Examples 3(c) and 3(d) (2% w/v crystalline, poloxamer 407)", "protocol": "Surgery was performed on naïve mice or mice with noise or pharmacologically-damaged ears. The animals were anesthetized with isoflurane and an 8 mm retroauricular incision was made to the lower caudal edge of the pinna. The skin was retracted and the fatty tissue was blunt dissected away from where the facial nerve and muscle come together. The muscle was retracted to reveal an area in the tympanic bulla where the bone was thin. A 30 g needle was used to drill a hole in the exposed thin portion of the otic bulla. A Hamilton syringe equipped with a 32 g blunt needle was inserted into the opening of the otic bulla. The drug formulation was delivered by injection and the needle removed. Wound closure was made with tissue glue.\nNaïve mice or mice at various times after either noise or pharmacological deafening were anesthetized with ketamine/xylazine/acepromazine and the auditory brainstem response was determined in both ears using a Tucker Davis (Alachua, Fla.) RZ6 apparatus. The mice were exposed to clicks or pure tones of 4, 8, 16, 24 and 32 kHz at 90-10 dB in 10 dB descending steps and the hearing threshold was determined."}, "[1]": {"assay": "Guinea pig PK after transtympanic delivery (perilymph and cochlea, LC/MS/MS)", "format": "in vivo", "details": "for concentration at 1 day / concentration at 7 day / concentration at 14 day / concentration at 3 day / concentration at 21 day / concentration at 28 day: male, Hartley, other: transtympanic, 30 μL, 30 μL transtympanic; for concentration at 1 day: Day 1, LLOQ = 0.08 μM; for concentration at 7 day: Day 7, LLOQ = 0.08 μM; for concentration at 14 day: Day 14, LLOQ = 0.08 μM; for concentration at 3 day: Day 3, LLOQ = 0.08 μM; for concentration at 21 day: Day 21, LLOQ = 0.08 μM; for concentration at 28 day: Day 28, LLOQ = 0.08 μM", "description": "(§2) Male Hartley guinea pigs (300-350 g) were anesthetized with ketamine and xylazine. Thirty microliters of an aqueous pharmaceutical composition of the instant embodiments was delivered transtympanically to deposit the drug to the round window membrane. Delivery was unilateral. The animals were placed in a warm chamber in a lateral recumbent position keeping the dosed ear side up until they recover from anesthesia.\nAt various timepoints after administration, the animals were euthanized by CO2 inhalation. Blood and CSF were collected and stored at −80° C. The animals were decapitated, the temporal bones removed and the bulla opened to expose the otic capsule. Ipsilateral and contralateral perilymph were collected from the apex using a microcapillary tube. The ipsilateral cochlea was removed from the otic capsule and stored at −80° C. All tissues collected were analyzed using LC/MS/MS for test compound concentration as follows. Analytical standards were prepared by spiking known concentrations of the test compound stock solutions into matrices such as plasma or artificial CSF. Fixed amounts of tissues collected and spiked standards were precipitated with acetonitrile containing buspirone as an internal standard. The precipitated samples were centrifuged at 4000 g for 10 minutes at 4° C. The supernatants were analyzed using LC-MS/MS. The LC-MS/MS system was set up using the AB Sciex 4000 Qtrap (AB Sciex, Framingham, Mass.) equipped with Agilent 1200 series HPLC and CTC PAL Autosampler (Agilent Technologies, Santa Clara, Calif.).\nLiquid compositions described herein were evaluated using the method described in Part E of the Biological Function section provided above. The liquid compositions prepared as described in Example 5(a)-5(d) were each drawn into a 1 mL syringe. Using the filled 1 mL syringe, the liquid composition was back-filled at 5° C. into a 100 μL Hamilton syringe adapted with 28 gauge needle. The Hamilton syringe was then allowed to warm to room temperature.\nas §2, with “the above liquid” for “an aqueous pharmaceutical”, “were” for “of the instant embodiments was”, “The delivery” for “Delivery”, “recovered” for “recover”\nAt various timepoints after administration, the animals were euthanized by CO2 inhalation. Blood and cerebrospinal fluid were collected and stored at −80° C. The animals were decapitated, the temporal bones removed and the bulla were opened to expose the otic capsule. Ipsilateral and contralateral perilymph were collected from the apex using a microcapillary tube. The ipsilateral cochlea was removed from the otic capsule and was stored at −80° C. All tissues collected were analyzed using LC/MS/MS as described in Part E of the Biological Function section above.\nThe concentrations of Compound I and Compound II were measured using LC/MS/MS in both the perilymph fluid and the cochlea tissue after a transtympanic injection of an instant formulation of either the crystalline form or the amorphous form at various time points. […] Concentration of the instant compounds in the perilymph and/or cochlea tissue was above the human NSC EC50 for Atoh1, an indicator that the subject compounds may be efficacious in hair cell regeneration and hearing restoration in human. […] Table 3 below lists the results for the studies using aqueous formulations of crystalline Compound I while Table 4 below lists those for aqueous formulations of crystalline Compound II. The results for aqueous formulations of crystalline Compound I are also graphically shown in FIG. 5A and FIG. 5B while the results for aqueous formulations of crystalline Compound II are graphically shown in FIG. 6A and FIG. 6B."}, "[2]": {"details": "cochlea, Amorphous form (Example 5(b)), read-out: Cochlea Average concentration"}, "[3]": {"details": "cochlea, Crystalline form (Example 5(a)), read-out: Cochlea Average concentration"}, "[4]": {"details": "perilymph, Amorphous form (Example 5(b)), read-out: perilymph Average concentration"}, "[5]": {"details": "perilymph, Crystalline form (Example 5(a)), read-out: Perilymph Average concentration"}}, "note": "Where two headings read alike, the source gives them in different places.", "data": [{"smiles": "C[C@H](OC(=O)NCC(F)(F)C(F)(F)F)C(=O)N[C@@H]1C(=O)Nc2ccccc2-c2ccccc21", "note": "[Compound I, (2,2,3,3,3-pentafluoropropyl)-carbamic acid (S)-1-((S)-6-oxo-6,7-dihydro-5H-dibenzo[b,d]azepin-7-ylcarbamoyl) ethyl ester]", "values": [{"measurement": "EC50", "setting": "Atoh1", "result": 625, "unit": "nM"}, {"measurement": "IC50", "setting": "HES5", "result": 288, "unit": "nM"}, {"measurement": "ABR Threshold Improvement", "setting": "mice; 16 kHz", "result": 7, "unit": "dB"}, {"measurement": "ABR Threshold Improvement", "setting": "mice; 24 kHz", "result": 10, "unit": "dB"}, {"measurement": "ABR Threshold Improvement", "setting": "mice; 32 kHz", "result": 8, "unit": "dB"}, {"measurement": "concentration in the perilymph and the cochlea compared with the human NSC EC50 for Atoh1", "setting": "[1]; dosed as the amorphous form, transtympanic", "result": "above the human NSC EC50 for Atoh1 at 1 day and 7 days"}, {"measurement": "concentration in the perilymph and the cochlea compared with the human NSC EC50 for Atoh1", "setting": "[1]; dosed as the crystalline form, transtympanic", "result": "above the NSC EC50 from day 1 to day 28"}, {"measurement": "concentration at 1 day", "setting": "[1]; [2]", "result": 211, "unit": "µM"}, {"measurement": "concentration at 7 day", "setting": "[1]; [2]", "result": 28.4, "unit": "µM"}, {"measurement": "concentration at 14 day", "setting": "[1]; [2]", "result": 0.04, "unit": "µM"}, {"measurement": "concentration at 1 day", "setting": "[1]; [3]", "result": 69, "unit": "µM"}, {"measurement": "concentration at 3 day", "setting": "[1]; [3]", "result": 25.6, "unit": "µM"}, {"measurement": "concentration at 7 day", "setting": "[1]; [3]", "result": 4.1, "unit": "µM"}, {"measurement": "concentration at 14 day", "setting": "[1]; [3]", "result": 9, "unit": "µM"}, {"measurement": "concentration at 21 day", "setting": "[1]; [3]", "result": 6.2, "unit": "µM"}, {"measurement": "concentration at 28 day", "setting": "[1]; [3]", "result": 12.8, "unit": "µM"}, {"measurement": "concentration at 1 day", "setting": "[1]; [4]", "result": 33.3, "unit": "µM"}, {"measurement": "concentration at 7 day", "setting": "[1]; [4]", "result": 14, "unit": "µM"}, {"measurement": "concentration at 14 day", "setting": "[1]; [4]", "result": 0, "unit": "µM"}, {"measurement": "concentration at 1 day", "setting": "[1]; [5]", "result": 395, "unit": "µM"}, {"measurement": "concentration at 3 day", "setting": "[1]; [5]", "result": 568, "unit": "µM"}, {"measurement": "concentration at 7 day", "setting": "[1]; [5]", "result": 18.9, "unit": "µM"}, {"measurement": "concentration at 14 day", "setting": "[1]; [5]", "result": 116, "unit": "µM"}, {"measurement": "concentration at 21 day", "setting": "[1]; [5]", "result": 18.2, "unit": "µM"}, {"measurement": "concentration at 28 day", "setting": "[1]; [5]", "result": 10.4, "unit": "µM"}, {"measurement": "exposure to the inner ear, crystalline formulation versus respective amorphous formulation", "setting": "[1]; transtympanic, formulations of Example 5(a)-5(d)", "result": "longer exposure"}]}]}
